From US20100305098A1, “METHODS OF USE” (priority 2007, published 2010)
pIC50: −log10 of the molar value. Values belong to the compound of their own block, whether it stands above or below them.

How the values were obtained:
activated human MoDCs = test: Human MoDC IL-23 secretion assay; type: cell-based; conditions: PGE1-OH (10 nM); LPS/R-848 activated human MoDCs, 24 h; read-out: IC50 (Ave. of two experiments), inhibiting PGE1-OH enhanced IL-23 production
Procedure: In vitro human monocytes derived DC assay. CD14^+ cells were purified from human PBMCs using Miltenyi CD14 microbeads, and differentiated with human GM-CSF (500 U/ml)+human IL-4 (500 U/ml) in complete RPMI medium containing 10% charcoal-stripped FBS for […]. The unattached imDCs were stimulated with LPS (10 ng/ml)+R-848 (2.5 μg/ml) with or without addition of EP4 agonist/antagonist or anti-PGE2 Ab at the concentrations indicated for 24 h. IL-23 in culture supernatants were measured by ELISA (eBioscience).
Human CD14^+ monocytes were differentiated into imDCs with GM-CSF plus IL-4 for 7 days and re-stimulated with LPS/R-848 in the presence or absence of exogenous PGE1-OH (1-100 nM) and with and without ER-819762 (FIG. 13) or ER-819924 or anti-PGE2 Ab (FIG. 14) for 24 h. IL-23 secretion in culture supernatants was measured by ELISA. […] IC50 values of representative compounds in human MoDC IL-23 secretion assay.

human T-bet = human T-bet (Homo sapiens, UniProt Q9UL17); test: HEKT-bet-luc assay (normalized); type: cell-based; conditions: reference compound used for normalization; read-out: established potency of the reference compound (IC50)
human T-bet, sequence (Q9UL17 whole entry): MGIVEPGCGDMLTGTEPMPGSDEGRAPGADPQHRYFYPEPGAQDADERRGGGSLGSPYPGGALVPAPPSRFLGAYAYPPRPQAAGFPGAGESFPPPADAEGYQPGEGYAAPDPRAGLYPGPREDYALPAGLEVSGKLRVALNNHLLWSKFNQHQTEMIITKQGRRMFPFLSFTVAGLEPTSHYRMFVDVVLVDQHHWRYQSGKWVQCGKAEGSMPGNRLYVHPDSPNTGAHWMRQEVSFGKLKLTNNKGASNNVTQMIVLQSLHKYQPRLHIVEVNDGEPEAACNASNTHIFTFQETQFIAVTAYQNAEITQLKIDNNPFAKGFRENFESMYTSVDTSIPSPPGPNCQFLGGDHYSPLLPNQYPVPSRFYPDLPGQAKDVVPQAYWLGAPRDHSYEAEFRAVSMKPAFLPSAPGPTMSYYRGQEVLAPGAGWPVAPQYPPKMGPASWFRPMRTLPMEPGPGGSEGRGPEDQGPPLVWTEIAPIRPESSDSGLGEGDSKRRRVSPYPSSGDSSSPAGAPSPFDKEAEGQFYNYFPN
Procedure: HEKT-bet-luc assay: This assay measures a T-bet dependent reporter (luciferase) activity in engineered HEK cells that express a human T-bet and a T-box responsive element driving luciferase reporter. HEKT-bet cells were plated at 2×10^4/well in 96-well plate and compound was added into cell culture for 24 hours. Luciferase activity was measured by adding 50 μl of Steady-Glo reagent (Promega) and samples were read in Victor V reader (PerkinElmer). The activity of compound was determined by comparing compound treated samples to non-compound treated vehicle controls. The IC50 values were calculated utilizing a maximum value corresponding to the amount of luciferase in the absence of a test compound and a minimum value corresponding to a test compound value obtained at maximum inhibition.
Determination of Normalized HEKT-bet IC50 values: Compounds were assayed in microtiter plates. […] The un-normalized IC50 value for a particular compound was divided by the IC50 value determined for the reference compound in the same microtiter plate to provide a relative potency value. […]
Exemplary compounds of the present invention were assayed according to the methods set forth above in the HEKT-bet-luc assay described above. Table 2 below set forth exemplary compounds of the present invention having an IC50 of up to the indicated amount (μM) as determined by the normalized HEKT-bet-luc assay described above.

[1] = tested on: activated mouse CD4+ T cells; test: IL-17 production in activated mouse CD4+ T cells; type: cell-based; conditions: anti-CD3/anti-CD28 stimulated CD4+ T cells
Procedure: To study the effect of EP4 agonist/antagonist on IL-17 production, total CD4^+ T cells from C57BL/6 mice were activated with plate-bound anti-CD3 (2 μg/ml) plus soluble anti-CD 28 (2 μg/ml) in the presence or absence of IL-23 (10 ng/ml) or EP4 agonist/antagonists at indicated concentrations for 3-5 days. Culture supernatants were analyzed by IL-17 ELISA, and cell pellets were used to measure cell proliferation with CellTite-Glo reagents.
To investigate whether EP4 also plays a role in a Th17 response, the effect of EP4 activation by PGE2 or EP4 agonist on IL-17 production in activated mouse CD4^+ T cells was examined. Total CD4^+ T cells were stimulated with anti-CD3/anti-CD28 with and without IL-23 and in the presence or absence of PGE2 or EP4 agonist PGE1-OH (0.1 nM to 1000 nM) for 3-5 days. IL-17 in culture supernatants was measured by ELISA and cell proliferation was measured by CellTiter-glo.

Naive CD4 T cells = test: Mouse Th1 differentiation assay; type: cell-based; conditions: for effect on Th1 differentiation: added during Th1 differentiation, 3 days
Procedure: In vitro T cell assays. Naive CD4^+ T cells were purified from spleens of either BALB/c or D011.10 mice by Robosep as described by the manufacture. For BALB/c mice, 1×10^5 of CD4^+ T cells were cultured for 3-6 days in a 96-well plate in 100 μl of complete RPMI medium (Cellgro) containing either 10% of regular fetal bovine serum (Hyclone) or charcoal stripped FBS (Hyclone) (when exogenous PGE2 or EP4 agonists were added to the culture) under either neutral condition (1 μg/ml of plate-bound anti-CD3+1 μg/ml of soluble anti-CD28+10 ng/ml of mouse IL-2) or under Th1 promoting condition (neutral+5 ng/ml of mouse IL-12+10 μg/ml of anti-IL-4) or under Th2 differentiation condition (neutral+10 ng/ml of mouse IL-4+10 μg/ml of […]). IFNγ or IL-4 in culture supernatants were detected by ELISA. Cell pellets were used to measure cell proliferation with either Alamar blue or CellTiter-Glo reagents according to the instructions of the manufacture. For D011.10 mice, mitomycin C treated splenocytes from BALB/c mice were used as antigen presenting cells and co-cultured with naive CD4^+ T cells in 5 to 1 ratio (5×10^5 of mitomycin C treated splenocytes in 100 μl medium+1×10^5 CD^4 T cells in 100 μl medium) and stimulated with OVA peptide (0.3 ng/ml) under either neutral, Th1 or Th2 promoting conditions as described above. EP4 agonists, antagonists or anti-PGE2 Ab were added during Th cell differentiation.
To investigate whether EP4 activation plays a role in Th1 differentiation, the effect of PGE2 or EP4 agonist and anti-PGE2 antibody was examined in a mouse Th1 differentiation assay. Naive CD4 T cells were differentiated with Th1 promoting agents for 3 days. Th1 cytokine IFNγ in culture supernatants was measured by ELISA. Cell proliferation was measured by Alamar blue assay. PGE2 or EP4 agonist PGE1-OH was added during Th1 differentiation.

EP4 = target: T1, EP4 (Homo sapiens, UniProt P35408); test: PGE2 induced CRE-PLAP reporter assay in SE302 cells; type: cell-based; conditions: tested at 0.3 nM to 10 μM
T1 construct: SE302 cells that express endogenous EP4; endogenous in cells; host or cells: SE302 cells
T1 sequence (P35408 whole entry): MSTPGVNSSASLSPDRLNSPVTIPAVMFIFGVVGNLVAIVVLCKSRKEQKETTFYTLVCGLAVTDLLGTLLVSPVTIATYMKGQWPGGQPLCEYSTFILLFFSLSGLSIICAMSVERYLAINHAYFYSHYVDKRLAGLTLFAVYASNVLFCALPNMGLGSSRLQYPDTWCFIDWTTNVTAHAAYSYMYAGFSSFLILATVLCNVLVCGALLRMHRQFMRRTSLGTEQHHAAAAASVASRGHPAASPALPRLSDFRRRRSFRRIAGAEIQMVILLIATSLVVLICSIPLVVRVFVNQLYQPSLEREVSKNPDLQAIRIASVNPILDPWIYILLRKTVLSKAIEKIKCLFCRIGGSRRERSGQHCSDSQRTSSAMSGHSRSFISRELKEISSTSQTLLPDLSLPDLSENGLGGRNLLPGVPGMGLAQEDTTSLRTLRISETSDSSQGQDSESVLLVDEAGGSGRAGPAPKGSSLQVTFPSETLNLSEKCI
Procedure: CRE-PLAP reporter assay. SE302 cells that express endogenous EP4 were stimulated with PGE2 in the presence or absence of ER-819762 for overnight, and PLAP activity was measured.

CAIA mouse = test: Suppression of arthritis development in CAIA; type: in vivo; conditions: once daily PO day 0 to day 7
Procedure: Suppression of arthritis development in CAIA. BALB/c mice were injected i.v. with 1 mg of anti-type II collagen antibody at day 0, and 3 days later 25 μg of LPS was injected i.p. with active compound and methotrexate (MTX) was given once daily PO from day 0 to day 7. Arthritis score and body weight was monitored over the course of study.

- pIC50 (activated human MoDCs): 7.24
Compound: CCN1C(=O)N2Cc3cc(OC)cc(OC)c3[C@@H](C)C=C2C12CCN(Cc1nc(C)oc1C)CC2 [ER-811283-01]

- pIC50 (human T-bet): 7.46
Compound: COCCN1C(=O)N2Cc3cc(OC)cc(OC)c3C(C)(C)C=C2C12CCN(Cc1cc(OC)cc(OC)c1)CC2 [ER-819544]

Compound: CCN1C(=O)N2Cc3cc(OC)cc(OC)c3[C@@H](C)C=C2C12CCN(Cc1cc(C)cc(C)c1)CC2 [ER-819762-01]
- effect on PGE2/PGE1-OH enhanced IL-17 production [1]: suppressed the activity

- inhibition of PGE2 induced CRE-PLAP reporter activity (EP4): potent inhibitory activities
- pIC50 (activated human MoDCs): 6.70 to 7.40
Compound: CCN1C(=O)N2Cc3cc(OC)cc(OC)c3[C@@H](C)C=C2C12CCN(Cc1cc(C)cc(C)c1)CC2 [ER-819762]
- added activity to anti-PGE2 Ab in Th1 differentiation (Naive CD4 T cells; combination with anti-PGE2 Ab): no added activity
- effect on PGE2/PGE1-OH enhanced IL-17 production [1]: suppresses

- pIC50 (activated human MoDCs): 6.73
Compound: CCN1C(=O)N2Cc3cc(OC)cc(OC)c3[C@@H](C)C=C2C12CCN(Cc1c[nH]nc1C)CC2 [ER-819826-01]

Compound: CCN1C(=O)N2Cc3cc(OC)cc(OC)c3[C@@H](C)C=C2C12CCN(Cc1cccn1C)CC2 [ER-819924]
- inhibition of PGE2 induced CRE-PLAP reporter activity (EP4): potent inhibitory activities
- pIC50 (activated human MoDCs): > 6.70

Compound: CCCCC[C@H](O)/C=C/[C@H]1[C@H](O)CC(=O)[C@@H]1CCCCCCCO [PGE1-OH, PGE1-alcohol]
- effect on Th1 differentiation (Naive CD4 T cells): enhanced Th1 differentiation

Compound: CCCCC[C@H](O)/C=C/[C@H]1[C@H](O)CC(=O)[C@@H]1C/C=C\CCCC(=O)O [PGE2, prostaglandin E2]
- effect on Th1 differentiation (Naive CD4 T cells): enhanced Th1 differentiation

Compound: CN(Cc1cnc2nc(N)nc(N)c2n1)c1ccc(C(=O)N[C@@H](CCC(=O)O)C(=O)O)cc1 [methotrexate]
- activity in CAIA model (CAIA mouse): not particularly active
